The record followed here is patent US6730697B2, “Dihydrothiaphenanthrenecarbonylguanidines: composition, process of making, and use as medicament or diagnostic aid” (Aventis Pharma Deutschland GmbH, priority 2002, dated 2004).

Where a name gives a salt, the structure may show the parent alone.

T1 sequence (P19634 whole entry): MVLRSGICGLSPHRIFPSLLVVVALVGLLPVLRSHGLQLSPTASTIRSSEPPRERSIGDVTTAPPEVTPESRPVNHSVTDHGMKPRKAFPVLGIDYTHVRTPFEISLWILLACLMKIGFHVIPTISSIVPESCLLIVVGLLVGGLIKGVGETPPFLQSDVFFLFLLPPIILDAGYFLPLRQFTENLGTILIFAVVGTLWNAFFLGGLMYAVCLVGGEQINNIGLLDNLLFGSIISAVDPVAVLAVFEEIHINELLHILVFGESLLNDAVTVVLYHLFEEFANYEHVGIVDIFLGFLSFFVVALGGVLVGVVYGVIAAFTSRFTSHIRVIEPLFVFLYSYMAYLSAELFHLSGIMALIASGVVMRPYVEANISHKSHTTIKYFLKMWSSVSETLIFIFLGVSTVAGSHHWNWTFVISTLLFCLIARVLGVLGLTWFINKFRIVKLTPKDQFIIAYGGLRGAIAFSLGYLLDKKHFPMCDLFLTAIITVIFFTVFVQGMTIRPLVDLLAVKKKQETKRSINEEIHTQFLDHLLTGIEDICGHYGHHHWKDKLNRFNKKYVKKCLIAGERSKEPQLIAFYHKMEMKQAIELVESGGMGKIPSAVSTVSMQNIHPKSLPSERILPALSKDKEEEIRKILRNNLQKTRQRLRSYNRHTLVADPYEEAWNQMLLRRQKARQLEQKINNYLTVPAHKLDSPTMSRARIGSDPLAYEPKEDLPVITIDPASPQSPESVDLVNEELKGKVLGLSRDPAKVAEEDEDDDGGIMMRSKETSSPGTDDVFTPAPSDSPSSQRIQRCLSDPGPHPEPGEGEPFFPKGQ

This test concerns the target T1, human NHE-1 (Homo sapiens, UniProt P19634).
T1 construct: expressed in transfected cells; host or cells: LAP-1 cells (parental line without endogenous NHE activity, from Prof. Pouysségur, Nice), G418-selected transfectants
Description: FLIPR assay for NHE-1 inhibition by recovery of pHi in transfected cell lines. In kind it is cell-based. The note with it: transfected LAP-1 cell line expressing human NHE-1, BCECF fluorescence. The procedure: The NHE-1 inhibition IC50 [nM] was determined as follows: FLIPR Assay for Determining NHE-1 Inhibitors by Measurement of the Recovery in pHi in Transfected Cell Lines Which Express Human NHE-1 The assay is carried out in an FLIPR (fluorometric imaging plate reader) with black-walled 96-well microtiter plates with clear bases. […] [The growth medium for the transfected cells (Iscove +10% fetal calf serum) additionally contains G418 as selection antibiotic in order to ensure the presence of the transfected sequences.] The actual assay starts with the removal of the growth medium and addition of 100 μl of loading buffer per well (5 μM BCECF-AM [2′, 7′-bis(carboxyethyl)-5-(and-6)-carboxyfluorescein, acetoxymethyl ester] in 20 mM NH4Cl, 115 mM choline chloride, 1 mM MgCl2, 1 mM CaCl2, 5 mM KCl, 20 mM HEPES, 5 mM glucose; pH 7.4 [adjusted with KOH]). The cells are then incubated at 37° C. for 20 minutes. This incubation leads to loading of the cells with the fluorescent dye whose fluorescence intensity depends on pHi, and with NH4Cl which makes the cells slightly alkaline. [The nonfluorescent dye precursor BCECF-AM is, as ester, membrane-permeable. The actual dye BCECF is not membrane-permeable but is liberated inside cells by esterases.] After this incubation for 20 minutes, the loading buffer which contains NH4Cl and free BCECF-AM is removed by washing three times in a cell washer (Tecan Columbus) with in each case 400 μl of washing buffer (133.8 mM choline chloride, 4.7 mM KCl, 1.25 mM MgCl2, 1.25 mM CaCl2, 0.97 mM K2HPO4, 0.23 mM KH2PO4, 5 mM HEPES, 5 mM glucose; pH 7.4 [adjusted with KOH]). The residual volume remaining in the wells is 90 μl (50-125 μl possible). This washing step removes the free BCECF-AM and results, as a consequence of the removal of the external NH4^+ ions, in intracellular acidification (˜pHi 6.3-6.4). Since the equilibrium of intracellular NH4^+ with NH3 and H^+ is disturbed by the removal of the extracellular NH4^+ and by the subsequent instantaneous passage of the NH3 through the cell membrane, the washing process results in H^+ remaining inside the cells, which is the cause of the intracellular acidification. This may eventually lead to cell death if it persists long enough. It is important at this point that the washing buffer is sodium-free (<1 mM) because extracellular sodium ions would lead to an instantaneous recovery of the pHi through the activity of the cloned NHE isoforms. It is likewise important for all the buffers used (loading buffer, washing buffer, recovery buffer) not to contain any HCO3^− ions, because the presence of bicarbonate would lead to activation of interfering bicarbonate-dependent pHi regulatory systems present in the parental LAP-1 cell line. The microtiter plates with the acidified cells are then (up to 20 minutes after the acidification) transferred to the FLIPR. In the FLIPR, the intracellular fluorescent dye is excited by light with a wavelength of 488 nm generated by an argon laser, and the measured parameters (laser power, illumination time and aperture of the CCD camera incorporated in the FLIPR) are chosen so that the average fluorescence signal per well is between 30 000 and 35 000 relative fluorescence units. The actual measurement in the FLIPR starts with a photograph being taken by the CCD camera every two seconds under software control. After ten seconds, the recovery of the intracellular pH is initiated by adding 90 μl of recovery buffer (133.8 mM NaCl, 4.7 mM KCl, 1.25 mM MgCl2, 1.25 mM CaCl2, 0.97 mM K2HPO4, 0.23 mM KH2PO4, 10 mM HEPES, 5 mM glucose; pH 7.4 [adjusted with NaOH]) by means of the 96-well pipettor incorporated in the FLIPR. Positive control wells (100% NHE activity) are those to which pure recovery buffer is added, while negative controls (0% NHE activity) receive washing buffer. Recovery buffer with twice the concentration of test substance is added to all the other wells. Measurement in the FLIPR terminates after 60 measurements (two minutes). […]
Consider `Cc1cc2c(cc1C(=O)NC(=N)N)S(=O)(=O)Cc1ccccc1-2` [Example 1, N-(6-Methyl-9,9-dioxo-9,10-dihydro-9-thiaphenanthrene-7-carbonyl)guanidinium Formate], for which the IC50 came to 15.6 nM. The result for `Cc1cc2c(cc1C(=O)NC(=N)N)S(=O)(=O)Cc1ccc3ccccc3c1-2` [Example 2, N-(2-Methyl-5,5-dioxo-5,6-dihydro-5-thiabenzo[c]phenanthrene-3-carbonyl)guanidinium Formate] reads 24.2 nM; that for `Cc1ccc2c(c1)-c1cc(C)c(C(=O)NC(=N)N)cc1S(=O)(=O)C2` [Example 3, N-(3,6-Dimethyl-9,9-dioxo-9,10-dihydro-9-thiaphenanthrene-7-carbonyl)-guanidinium Formate], 8.6 nM. The result for `Cc1cc2c(cc1C(=O)NC(=N)N)S(=O)(=O)Cc1cc(Cl)ccc1-2` [Example 4, N-(2-Chloro-6-methyl-9,9-dioxo-9,10-dihydro-9-thiaphenanthrene-7-carbonyl)guanidinium Formate] reads 10.8 nM. The result for `Cc1cc2c(cc1C(=O)NC(=N)N)S(=O)(=O)Cc1ccc(F)cc1-2` [Example 5, N-(3-Fluoro-6-methyl-9,9-dioxo-9,10-dihydro-9-thiaphenanthrene-7-carbonyl)guanidinium Formate] reads 15.6 nM; that for `Cc1cc2c(cc1C(=O)NC(=N)N)S(=O)(=O)Cc1c(F)cccc1-2` [Example 6, N-(1-Fluoro-6-methyl-9,9-dioxo-9,10-dihydro-9-thiaphenanthrene-7-carbonyl)guanidinium Formate], 16.5 nM; that for `Cc1cc2c(cc1C(=O)NC(=N)N)S(=O)(=O)Cc1ccc(Cl)cc1-2` [Example 7, N-(3-Chloro-6-methyl-9,9-dioxo-9,10-dihydro-9-thiaphenanthrene-7-carbonyl)guanidinium Formate], 11.7 nM. `COc1ccc2c(c1)CS(=O)(=O)c1cc(C(=O)NC(=N)N)c(C)cc1-2` [Example 8, N-(2-Methoxy-6-methyl-9,9-dioxo-9,10-dihydro-9-thiaphenanthrene-7-carbonyl)guanidinium Formate]: the IC50 is 10.2 nM. To `Cc1cc2c(cc1C(=O)NC(=N)N)S(=O)(=O)Cc1c(Cl)cccc1-2` [Example 9, N-(1-Chloro-6-methyl-9,9-dioxo-9,10-dihydro-9-thiaphenanthrene-7-carbonyl)guanidinium Formate] belongs 13.9 nM; to `Cc1cc2c(cc1C(=O)NC(=N)N)S(=O)(=O)Cc1cccc(C)c1-2` [Example 10, N-(4,6-Dimethyl-9,9-dioxo-9,10-dihydro-9-thiaphenanthrene-7-carbonyl)-guanidinium Formate], 67.7 nM. To `Cc1ccc2c(c1)CS(=O)(=O)c1cc(C(=O)NC(=N)N)c(C)cc1-2` [Example 11, N-(2,6-Dimethyl-9,9-dioxo-9,10-dihydro-9-thiaphenanthrene-7-carbonyl)-guanidinium Formate] belongs 19.5 nM.

The term IC50 denotes the concentration that gives 50% inhibition. Read a low IC50 as inhibition by little substance.
